Test results from ChEMBL document CHEMBL1149093, “Design and synthesis of new templates derived from pyrrolopyrimidine as selective multidrug-resistance-associated protein inhibitors in multidrug resistance” (J Med Chem, 2004).

Assays:
in vivo [1] = conditions: mouse, iv, 20 mg/kg
in vivo [2] = conditions: mouse, iv, 20 mg/kg; remark: listed apart in the source
in vivo [3] = conditions: mouse, plasma, iv, 20 mg/kg
in vivo [4] = conditions: mouse, plasma, ip, 50 mg/kg
in vivo [5] = conditions: mouse, ip, 50 mg/kg
in vivo [6] = conditions: mouse, ip, 50 mg/kg; remark: listed apart in the source

| Structure (SMILES) | AUC (in vivo [1]) | half-life (in vivo [2]) | Cmax (in vivo [3]) | Cmax (in vivo [4]) | half-life (in vivo [5]) | AUC (in vivo [6]) |
| --- | --- | --- | --- | --- | --- | --- |
| Cn1c2cccc(C(N)=O)c2c2nc(CN3CCOCC3)nc(N3CCN(CCc4ccc(F)c(F)c4)CC3)c21 | 14000 ng·h/mL | 3.03 h | 15 µM | – | – | – |
| Cn1c2ccnc(N3CCOCC3)c2c2ncnc(N3CCN(CCc4ccc(F)c(F)c4)CC3)c21 | 6320 ng·h/mL | 1.97 h | 11.9 µM | – | – | – |
| O=[N+]([O-])c1cc([N+](=O)[O-])c2[nH]c3c(N4CCN(CCc5ccc(F)c(F)c5)CC4)nc(CN4CCOCC4)nc3c2c1 | 5100 ng·h/mL | 2.4 h | 9 µM | 26.4 µM | 6.86 h | 30600 ng·h/mL |
